How the values were obtained:
S1P receptor 1 (S1PR1) [1] = target: T1, S1P receptor 1 (S1PR1) (Homo sapiens, UniProt P21453); assay: Ubiquitination of S1PR1 in HPAEC (immunoprecipitation, ubiquitin Ab); conditions: for ubiquitination of S1PR1 at 2 h: 1 μM (SEW2871 10 μM); for ubiquitination of S1PR1 at 1 h: 1 μM
Description: S1PR1 was immunoprecipitated by S1PR1Ab, and ubiquitination of S1PR1 was detected by ubiquitin Ab.

[2] = system: LPS-induced lung injury in C57BL/6 mice; assay: LPS-induced murine lung injury model; conditions: for capillary leak as total BAL protein, relative to PBS control: 1S 0.1-5.0 mg/kg i.p. single dose 1 h after LPS 2.5 mg/kg i.t., FTY720 0.5 mg/kg, S1P 0.026 mg/kg; for peripheral blood leukocyte and lymphocyte levels relative to PBS controls: 18 h after LPS
Experimental: For experiments performed in intact animals, male C57BL/6 mice (8-10 weeks) were anesthetized with intraperitoneal ketamine and acetylpromazine mixture according to the approved protocol. Escherichia coli LPS solution (2.5 mg/kg) or sterile saline was instilled intratracheally via a 20-gauge catheter. Simultaneously, mice received either FTY720 or analogs (in doses: 0.01, 0.1, 0.5, 1, and 5 mg/kg i.p.) or PBS as vehicle. The animals were allowed to recover for 18 h. BAL and lungs were collected and stored at −70° C. for evaluation of lung injury.
Pure BAL fluids prepared for protein measurement or myeloperoxidase activity (MPO) lung homogenates were used to test albumin concentration. The assay was performed in 96-well plastic plates (Nalge Nunc A/S, Roskilde, Denmark). Plates were coated with mouse albumin (Bethyl Lab, Montgomery, Tex.), washed, and blocked. Aliquots (100-μl) of the sample or standard and 100 μl of goat anti-mouse albumin antibody (horseradish peroxidase-conjugated) (1:50,000) were then added, followed by incubation at 37° C. for 1 h. Finally, the substrate 3,3′,5,5′-tetramethylbenzidine was added for 10 min, and the reaction stopped by adding 100 μl of 2 M H2SO4. The absorbance at 450 nm was read on a kinetic microplate reader (Molecular Devices).
Myeloperoxidase (MPO) was isolated and measured from snap-frozen right lungs as follows (see also Remick et al., 1990, Am J Pathol 136: 49-60). The right lung was homogenized in 1 ml of 50 mM potassium phosphate, pH 6.0, with 0.5% hexadecyltrimethylammonium bromide. The resulting homogenate was sonicated and then centrifuged at 12,000 g for 15 min. The supernatant was mixed 1:30 with assay buffer (100 mM potassium phosphate, pH 6.0, 0.005% H2O2, 0.168 mg/ml o-dianisidine hydrochloride), and absorbance read at 490 nm. MPO units were calculated as the change in absorbance with respect to time.
Peripheral blood was examined by the Missouri University Research Animal Diagnostic Laboratory (Columbia, Mo.) for determination of total blood cell counts and differentials in blood samples.
Values are shown as the mean±S.E. Data were analyzed using a standard Student's t test or one-way analysis of variance, groups were compared by Newman-Keuls test, and significance in all cases was defined at p<0.05.

[3] = system: lung vascular leakage in RILI mice; assay: ViSen FMT lung imaging of intravascular probe extravasation in RILI mice; type: in vivo, mouse; conditions: 0.1 mg/kg, 25 Gy, 6 weeks
Experimental: Lung imaging studies were also performed with assessment of RILI-induced extravasation of an intravascular probe.
To assess microvascular changes associated with RILI in real-time, mice were imaged with ViSen FMT 1500 Quantitative Tomography In Vivo Imaging System. Intergisens^750 NIR (ViSen Medicals, Bedford, Mass.) was used as a probe, which targets the vasculature as a selective non-peptide small molecule integrin αvβ3 antagonist and a near-infrared fluorochrome. Mice were injected with probe ([…], IV) at 6 weeks post radiation and imaged 24 hrs later. Probe intensity was quantified using TrueQuant 3D software (VisSen Medicals).

[4] = system: radiation-induced lung injury (RILI) in C57BL/6 mice; assay: Murine model of RILI: BAL protein, BAL cell counts, BAL cytokines, EBD extravasation, body weight, lung histology; type: in vivo, mouse; conditions: for lung histology: inflammatory cell infiltration and interstitial edema induced by radiation: 0.1 mg/kg i.p. 2×/wk, 25 Gy; for lung histology: inflammatory cell infiltration and interstitial edema induced by radiation / BAL cell counts vs RILI-challenged controls / BAL protein vs RILI-challenged controls: 6 weeks; for BAL cell counts vs RILI-challenged controls / BAL protein vs RILI-challenged controls: 0.01 or 0.1 mg/kg i.p. 2×/wk from 1 wk before irradiation (20 Gy); for BAL cell counts vs RILI controls / BAL protein levels vs RILI controls: 3 times/wk from 1 wk before irradiation (20 Gy) up to 6 wks; for BAL cell counts vs RILI controls / BAL protein levels vs RILI controls / body weight loss after irradiation: simvastatin 10 mg/kg; for body weight loss after irradiation: analogs 0.1 mg/kg i.p., 3 times/wk from 1 wk before irradiation up to 6 wks
Experimental: Eight to 10-week-old C57BL/6J mice (Jackson Labs, Bar Harbor, Me.) were used for all studies in accordance with the University of Chicago Institutional Animal Care & Use Committee guidelines.
At the termination of each experiment, animals were euthanized by exsanguination under anesthesia in accordance with institutional guidelines. Both lungs were lavaged with 1.0 mL of Hank's buffered saline solution with the fluid allowed to equilibrate for 10 s before withdrawing. The pulmonary vasculature was perfused clear via the pulmonary artery with sterile phosphate-buffered saline (PBS). Both lungs were excised, weighed, and snap-frozen in liquid nitrogen for subsequent analysis. The BAL fluid collected was centrifuged at 500×g for 20 min at 4° C., and the supernatant was removed and recentrifuged at 12,000×g before snap-freezing. Cell pellets were resuspended in 0.5 mL of red blood cell lysis buffer (ACK Lysing Buffer; BioSource International, Camarillo, Calif.) for 20 min and then repelleted by centrifugation at 2500 rpm for 20 min at 4° C. The supernatant was decanted, and the cell pellet was resuspended in 0.2 mL of PBS for cellular analysis using a standard hemacytometer technique. A total of 300 BAL cells per slide were counted for cell differentials using a Diff-Quick-stained kit (Baxter Diagnostics, McGaw Park, Ill.). BAL protein concentrations were determined by a colorimetric BCA assay. Albumin concentrations in the BAL at 1:1000 and 1:100 dilutions, respectively, were quantitated by ELISA (Bethyl Labs, Montgomery, Tex.). To measure cytokines and chemokines, the BAL fluid was assayed with a Bioplex mouse cytokine kit (Bio-Rad, Hercules, Calif.) in accordance with the manufacturer's instructions.
All other chemicals were analytical or cell-culture grade and were obtained from various commercial sources. Evans Blue dye conjugated to albumin (EBA) was prepared by dissolving EBD to a concentration of 0.5% (5 mg/mL or 5.2 mM) in phosphate-buffered saline (PBS) (Ca^2+-Mg^2+ free; Invitrogen Corporation, Carlsbad, Calif.). To this solution, BSA was added to a final concentration of 4% (40 mg/mL or 0.6 mM), mixed well by stirring with a magnetic bar, allowed to stand for 30 min, and then sterile-filtered through a 0.22-μm syringe filter. The conjugate was stored in small aliquots at −80° C. To prevent cross-contamination, each aliquot was used only once in one animal and then discarded. 4, 6, 8, or 12 weeks after irradiation, the animals were injected with EBA via the jugular vein. At the end of exposure, the pulmonary circulation was flushed and lungs were harvested. Formamide extracts of lungs were prepared, with the initial modification that the homogenates were centrifuged at 12,000×g. Centrifugation at this relative centrifugal force (RCF) produced a compact pellet that allowed accurate measurement of the recovered volumes. Accurate estimation of such volumes is critical for calculating the final tissue dilution factor. Lungs, kidneys, and hearts from mice that were not injected with EBA were similarly extracted, to calculate the tissue-specific correction factors. […] Linear regression equations between absorbance at 740 nm (X) and 620 nm (Y) in tissue extracts of animals untreated with EBA were considered to be the tissue-specific correction factors. […] The EB concentration read in mg/mL was converted to μg/g wet weight of lungs using the dilution factor of the original homogenate as described above.
Eight to 10-week-old C57BL/6J mice (Jackson Labs, Bar Harbor, Me.) were used for all studies in accordance with the University of Chicago Institutional Animal Care & Use Committee guidelines. […] (FIG. 4A). Bronchoalveolar lavage (BAL) was performed as described above. BAL protein concentrations were determined by a colorimetric BCA assay. Albumin concentrations in the BAL at 1:1000 and 1:100 dilutions, respectively, were quantitated by ELISA (Bethyl Labs, Montgomery, Tex.).

HPAEC [5] = assay: Transendothelial electrical resistance (TER) of HPAEC; type: cell-based, human; conditions: for maximal TER change: 10 μM
Experimental: Cells were grown at 37° C. in a 5% CO2 incubator, and passages 6 to 9 were used for experiments. Media were changed 1 day before experimentation.

HPAEC [6] = assay: Pharmacologic inhibitor effects on barrier enhancement (TER); conditions: 1 μM agonist, 60 min; for % Inhibition of Maximal TER Response (of Agonist-Only Control), PTX: 2-h preincubation 100 ng/ml PTX; for % Inhibition of Maximal TER Response (of Agonist-Only Control), MβCD: 2-h preincubation 2 mM MβCD; for % Inhibition of Maximal TER Response (of Agonist-Only Control), Gen: 30-min preincubation 200 μM genistein
Experimental: Endothelial cells were grown to confluence in polycarbonate wells containing evaporated gold microelectrodes (surface area, 10^−3 cm^2) in series with a large gold counter electrode (1 cm^2) connected to a phase-sensitive lock-in amplifier. Current was applied across the electrodes by a 4,000-Hz AC voltage source with amplitude of 1 V in series with a 1 MΩ resistance to approximate a constant current source (˜1 μA). The in-phase and out-of-phase voltages between the electrodes were monitored in real time with the lock-in amplifier and subsequently converted to scalar measurements of transendothelial impedance, of which resistance was the primary focus. TER was monitored for 30 minutes to establish a baseline resistance (R0) which, for bovine pulmonary endothelium, was typically between 8 to 12×10^3Ω (wells with R0<7×10^3Ω were rejected). As cells adhere and spread out on the microelectrode, TER increases (maximal at confluence), whereas cell retraction, rounding, or loss of adhesion is reflected by a decrease in TER. These measurements provide a highly sensitive biophysical assay that indicates the state of cell shape and focal adhesion. Values from each microelectrode were pooled at discrete time points and plotted versus time as the mean±SE of the mean. TER values from each microelectrode were pooled as discrete time points and plotted versus time as the mean±S.E.M.
In this experiment, confluent HPAEC were plated on gold microelectrodes and then stimulated with 1 μM S1P, FTY720, 1R, 1S, 2R, or 2S after either a 2-h preincubation with 100 ng/ml PTX, 30-min preincubation with 200 μM genistein (Gen), or 2-h preincubation with 2 mM MβCD or their respective vehicle controls. Data were pooled from multiple TER experiments (4-10 independent experiments per condition) and expressed as percentage inhibition of maximal barrier enhancement at 60 min relative to agonist-only control.

S1P receptor 1 (S1PR1) [7] = target: T1, S1P receptor 1 (S1PR1); assay: S1PR1 protein expression in HPAEC by Western blot; type: cell-based; parameters: Cells were collected and S1PR1 expression level was detected by Western blot; endogenous in cells; host or cells: HPAEC (human pulmonary artery endothelial cells); conditions: for S1PR1 expression level compared to control: 1 μM (SEW2871 10 μM), 4 h
Description: Cells were collected and S1PR1 expression level was detected by Western blot.

[8] = system: bleomycin-induced ALI in C57/BL6 mice; assay: Murine model of bleomycin-induced ALI; conditions: for animals alive by day 12 following bleomycin instillation: bleomycin 1.2 U/kg i.t.; for mice survived to 14 days: bleomycin + compound
Experimental: C57/BL6 mice received bleomycin (1.2 U/kg) or sterile saline administered i.t. (intratracheally) and were then treated with FTY720, (S)-FTY720-phosphonate, (0.1 mg/kg i.p.) or PBS vehicle 3× a week until harvesting. Mice were followed for 14 days to assess mortality rates and multiple indices of lung injury.

T1 sequence (P21453 whole entry): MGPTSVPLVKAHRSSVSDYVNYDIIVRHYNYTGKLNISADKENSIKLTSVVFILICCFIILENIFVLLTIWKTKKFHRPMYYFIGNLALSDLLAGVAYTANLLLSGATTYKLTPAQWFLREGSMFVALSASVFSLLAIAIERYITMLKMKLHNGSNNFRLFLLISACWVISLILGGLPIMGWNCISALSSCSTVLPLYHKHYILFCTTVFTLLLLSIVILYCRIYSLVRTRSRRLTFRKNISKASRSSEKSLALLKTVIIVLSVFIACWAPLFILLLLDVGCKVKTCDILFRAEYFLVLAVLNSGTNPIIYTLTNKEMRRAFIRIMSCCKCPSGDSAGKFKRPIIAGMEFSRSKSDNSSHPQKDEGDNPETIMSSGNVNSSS

Row | SMILES | ubiquitination of S1PR1 at 2 h (S1P receptor 1 (S1PR1) [1]) | ubiquitination of S1PR1 at 1 h (S1P receptor 1 (S1PR1) [1]) | capillary leak as total BAL protein, relative to PBS control ([2]; 18 h) | peripheral blood leukocyte and lymphocyte levels relative to PBS controls [2] | radiation-induced probe extravasation (probe intensity), FMT imaging [3] | lung histology: inflammatory cell infiltration and interstitial edema induced by radiation [4] | BAL cell counts vs RILI-challenged controls [4] | BAL protein vs RILI-challenged controls [4] | BAL cell counts vs RILI controls [4] | BAL protein levels vs RILI controls [4] | body weight loss after irradiation [4] | maximal TER change (HPAEC [5]; within 60 min) | % Inhibition of Maximal TER Response (of Agonist-Only Control), PTX (HPAEC [6]) | % Inhibition of Maximal TER Response (of Agonist-Only Control), MβCD (HPAEC [6]) | % Inhibition of Maximal TER Response (of Agonist-Only Control), Gen (HPAEC [6]) | S1PR1 expression level compared to control (S1P receptor 1 (S1PR1) [7]) [%] | animals alive by day 12 following bleomycin instillation ([8]; 0.1 mg/kg i.p. 3× a week) [%] | mice survived to 14 days [8] | also measured
1 | CCCCCCCCc1ccc(CCC(N)(CO)CO)cc1 [FTY720, 2-amino-2-[2-(4-octylphenyl)ethyl]propane-1,3-diol] | significant ubiquitination | only slight ubiquitination | reduction in permeability by 1S was comparable to that achieved by S1P or FTY720 | does not suppress circulating WBC levels | no evidence of protection | to a lesser extent | did not confer significant protection | did not confer significant protection | did not confer significant protection | did not confer significant protection | did not show any beneficial effect | somewhat barrier-disruptive | 84.0 (±9.1) % | 88.1 (±5.6) % | 86.2 (±10.7) % | 35.0 | 17 | 1 out of the 6 | TER response (tracing) (HPAEC [5]; 1 μM): delayed onset of barrier enhancement
2 | CCCCCCCCc1ccc(CC[C@@](N)(CO)CCP(=O)(O)O)cc1 [1S, (S)-3-amino-3-(hydroxymethyl)-5-(4-octylphenyl)pentylphosphonic acid] | does not induce ubiquitination | only slight ubiquitination | significantly reduced capillary leak | does not further alter peripheral blood leukocyte and lymphocyte levels | significant decreases | markedly attenuated | significant decreases | significant decreases | significant decreases | significant decreases | did not lose weight | even greater maximal TER elevation | 92.8 (±2.6) % | 97.2 (±0.8) % | 51.9 (±21.0) % | 87.6 | 83 | 5 out of 6 | BAL WBC accumulation ([2]; i.p. 1 h after LPS, 18 h): significantly reduced; LPS-induced albumin leakage into BAL ([2]; i.p. 1 h after LPS, 18 h): significantly reduced; LPS-induced albumin leakage into lung tissue ([2]; i.p. 1 h after LPS, 18 h): significantly reduced; lung tissue MPO activity ([2]; i.p. 1 h after LPS, 18 h): significantly reduced; hematologic toxicity ([2]; mouse, in vivo): without apparent hematologic toxicity; comparison with 1R, 2R, 2S in the LPS model ([2]; preliminary studies, data not shown): superior to the other barrier-promoting analogs; maximal percentage TER change compared with S1P and FTY720 (HPAEC [5]; 1 μM, within 60 min): greater maximal percentage TER change; S1PR1 expression, agonist without MG132 (S1P receptor 1 (S1PR1) [7]; 1 μM, 4 h (FIG. 18)): 89.5%; S1PR1 expression, agonist after MG132 pretreatment (S1P receptor 1 (S1PR1) [7]; MG132 10 μM 2 h, then 1 μM agonist 4 h): 99.2%; BAL protein after 14 days, compared to FTY720 ([8]; 0.1 mg/kg i.p. 3× a week): Decreased BAL protein
